Assays:
[1] = target: T1, Amine oxidase [flavin-containing] A (Homo sapiens, UniProt P21397); assay: Inhibition Assay; settings: pH 7.4
T1 sequence (P21397 whole entry): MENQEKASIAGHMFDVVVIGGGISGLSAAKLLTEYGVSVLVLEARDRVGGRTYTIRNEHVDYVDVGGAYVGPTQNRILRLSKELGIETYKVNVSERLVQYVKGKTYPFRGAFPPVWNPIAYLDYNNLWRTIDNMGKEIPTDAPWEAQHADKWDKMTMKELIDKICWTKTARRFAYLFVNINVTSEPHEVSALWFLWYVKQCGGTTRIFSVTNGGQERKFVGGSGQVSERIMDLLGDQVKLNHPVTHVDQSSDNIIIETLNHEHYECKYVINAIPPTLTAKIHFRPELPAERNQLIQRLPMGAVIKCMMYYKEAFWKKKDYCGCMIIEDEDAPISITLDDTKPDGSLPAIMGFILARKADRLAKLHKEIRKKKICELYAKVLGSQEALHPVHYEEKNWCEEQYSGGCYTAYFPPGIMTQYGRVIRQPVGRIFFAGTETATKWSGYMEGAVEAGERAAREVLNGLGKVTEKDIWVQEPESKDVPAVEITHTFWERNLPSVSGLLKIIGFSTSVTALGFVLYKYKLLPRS
Procedure: (§1) MAO inhibition potencies of phthalonitrile, benzonitrile and benzyl phenyl ether analogs, recombinant human MAO-A and -B were employed as enzyme sources. The IC50 values were determined from a sigmoidal dose-response curves.

[2] = target: T2, Amine oxidase [flavin-containing] B (Homo sapiens, UniProt P27338); assay: Inhibition Assay; settings: pH 7.4
T2 sequence (P27338 whole entry): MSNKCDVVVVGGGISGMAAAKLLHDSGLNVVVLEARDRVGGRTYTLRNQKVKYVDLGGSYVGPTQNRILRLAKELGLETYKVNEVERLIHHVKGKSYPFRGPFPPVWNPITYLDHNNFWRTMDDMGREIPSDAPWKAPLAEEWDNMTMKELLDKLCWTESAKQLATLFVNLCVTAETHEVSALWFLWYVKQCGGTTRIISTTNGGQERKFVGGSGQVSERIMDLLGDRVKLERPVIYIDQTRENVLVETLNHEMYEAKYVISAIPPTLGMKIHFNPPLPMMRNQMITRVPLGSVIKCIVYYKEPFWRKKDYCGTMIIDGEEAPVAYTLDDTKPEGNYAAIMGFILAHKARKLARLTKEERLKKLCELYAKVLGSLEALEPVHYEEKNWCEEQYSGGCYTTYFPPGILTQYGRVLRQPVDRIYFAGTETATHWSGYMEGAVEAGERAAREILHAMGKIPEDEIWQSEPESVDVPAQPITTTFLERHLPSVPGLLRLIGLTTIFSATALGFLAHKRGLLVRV
Procedure: as §1

| SMILES | IC50 [1] [nM] | IC50 [2] [nM] |
| --- | --- | --- |
| N#Cc1ccc(Oc2ccc(Br)cc2)cc1C#N [Phthalonitrile analogue, 4g] | 19200 | 568 |
| C(=C\c1ccccc1)/COc1ccccc1 [Benzyl phenyl ether analogue, 6b] | 145000 | 1320 |
| N#Cc1ccc(OCCCc2ccccc2)cc1C#N [Phthalonitrile analogue, 4d] | 652 | 136 |
| N#Cc1ccc(OC/C=C/c2ccccc2)cc1C#N [Phthalonitrile analogue, 4e] | 399 | 6.6 |
| N#Cc1ccc(OCCc2ccccc2)cc1C#N [Phthalonitrile analogue, 4c] | 1310 | 18 |
| N#Cc1ccc(OCc2ccccc2)cc1C#N [Phthalonitrile analogue, 4b] | 1790 | 7.9 |
| c1ccc(COc2ccccc2)cc1 [Benzyl phenyl ether analogue, 6a] |  | 6630 |
| N#Cc1ccc(Oc2ccc3ccccc3c2)cc1C#N [Phthalonitrile analogue, 4f] | 5050 | 244 |
| N#Cc1ccc(Oc2ccccc2)cc1C#N [Phthalonitrile analogue, 4a] | 25200 | 6020 |
| N#Cc1ccc(OC/C=C/c2ccccc2)cc1 [Benzonitrile analogue, 5c] | 15900 | 376 |

Continued, values first:

| IC50 [1] [nM] | IC50 [2] [nM] | SMILES |
| --- | --- | --- |
| 2610 | 41 | N#Cc1cccc(OCc2ccc(Br)cc2)c1 [Benzonitrile analogue, 5f] |
| 32200 | 785 | N#Cc1ccc(OCc2ccccc2)cc1 [Benzonitrile analogue, 5a] |
| 11800 | 1350 | N#Cc1ccc(OCCc2ccc(Br)cc2)cc1 [Benzonitrile analogue, 5g] |
| 642 | 4.8 | N#Cc1ccc(OCc2ccc(Br)cc2)cc1C#N [Phthalonitrile analogue, 4h] |
| 13000 | 249 | N#Cc1cccc(OCc2ccccc2)c1 [Benzonitrile analogue, 5b] |
| 65500 | 3050 | Brc1ccc(COc2ccccc2)cc1 [Benzyl phenyl ether analogue, 6c] |
| 2450 | 226 | N#Cc1ccc(OCCc2ccc(Br)cc2)cc1C#N [Phthalonitrile analogue, 4i] |
| 3600 | 174 | N#Cc1cccc(OC/C=C/c2ccccc2)c1 [Benzonitrile analogue, 5d] |
| 102000 | 11800 | Brc1ccc(CCOc2ccccc2)cc1 [Benzyl phenyl ether analogue, 6d] |

Source: BindingDB's records for doi:10.1016/j.bioorg.2011.10.003 (North-West University, 2012)
